Test results reported in patent publication US20240033349A1, “VACCINE AND METHOD OF PROTECTION AGAINST CORONAVIRUS INFECTION” (priority 2020, published 2024).

Key:
[1] = test system: SARS-Cov virus (strain SARS-Covktp3); parameters: species or system mice; settings: mouse, in vivo
[2] = test system: MERS-CovN3/Jordanp3 virus; parameters: species or system mice; settings: mouse, in vivo
[3] = test system: virus of Venezuelan equine encephalomyelitis, strain Trinidad; parameters: species or system mice; settings: mouse, in vivo
[4] = test system: new coronavirus infection COVID-19; settings: human, in vivo
SARS-Cov-2 = settings: human, in vivo
[5] = clinical examples, unlike other phthalhydrazide derivatives

Nc1cccc2c(=O)[nH][nH]c(=O)c12.[Na] [Tamerit, 5-amino-1,2,3,4-tetrahydrophthalazine-1,4-dione sodium salt]
Protection effect [1]: 50% | Protection effect [2]: 50% | Survival rate higher than in animals immunized only with VVE [3]: 25-30% | Survival rate of infected mice depending on the infecting dose [3]: 60-100% | Development of early pulmonary fibrosis by computed tomography [4]: not observed in any patient | Indications for artificial lung ventilation [4]: none of the observed patients treated with Tamerit had indications for artificial lung ventilation | Infection with COVID-19 after contact with the patients [4]: No one of them got infected | Reduction of duration of clinical manifestations of the acute phase of the disease [4]: 1.5-2 weeks | Time to complete regression of symptoms [4]: 3 to 4 days | Control MSCT of the chest organs (SARS-Cov-2): pronounced positive dynamics | Dynamics of clinical and laboratory data (SARS-Cov-2): rapid positive dynamics of clinical and laboratory data | MSCT grade of lung lesion (SARS-Cov-2): CT-2. | SARS-Cov-2 RNA test (SARS-Cov-2): not detected. | ferritin (SARS-Cov-2): ferritin-973.3 ng/ml | interleukin-6 (SARS-Cov-2): 924.6 pg/mL, | Toxic, cumulative, mutagenic or teratogenic effects [5]: no toxic, cumulative, mutagenic or teratogenic effects
